Values joined by “and” are separate entries in the source; they are usually repeats but may differ in a detail not shown here. Identical values can stand only once. One block for each compound: values may come before it.
Tested on: 565726-208-R1-J5-PDC complex spheroids, growth inhibition
Assay: Anticancer human tumor 565726-208-R1-J5-PDC patient-derived pancreatic adenocarcinoma cell line growth inhibition [RAS]
Details: for viability, T/C: stronger effect = lower value
How it was run: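 Agents were tested in combination matrices in half-log decrements from a top concentration at or near clinical Cmax (10 microM if undetermined). Targets were multi-cell spheroids of tumour lines plus HUVEC and MSC stromal cells.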

[1] = curve of first compound, second compound 0.0316 µM
[2] = curve of first compound, second compound 0.1 µM
[3] = curve of first compound, second compound 0.316 µM
[4] = curve of first compound, second compound 1 µM
[5] = second compound 0.0316 µM, first compound 0.0316 µM
[6] = second compound 0.0316 µM, first compound 0.1 µM
[7] = second compound 0.0316 µM, first compound 0.316 µM
[8] = second compound 0.0316 µM, first compound 1 µM
[9] = second compound 0.0316 µM, first compound 3.16 µM
[10] = second compound 0.0316 µM, first compound 10 µM
[11] = second compound 0.1 µM, first compound 0.0316 µM
[12] = second compound 0.1 µM, first compound 0.1 µM
[13] = second compound 0.1 µM, first compound 0.316 µM
[14] = second compound 0.1 µM, first compound 1 µM
[15] = second compound 0.1 µM, first compound 3.16 µM
[16] = second compound 0.1 µM, first compound 10 µM
[17] = second compound 0.316 µM, first compound 0.0316 µM
[18] = second compound 0.316 µM, first compound 0.1 µM
[19] = second compound 0.316 µM, first compound 0.316 µM
[20] = second compound 0.316 µM, first compound 1 µM
[21] = second compound 0.316 µM, first compound 3.16 µM
[22] = second compound 0.316 µM, first compound 10 µM
[23] = second compound 1 µM, first compound 0.0316 µM
[24] = second compound 1 µM, first compound 0.1 µM
[25] = second compound 1 µM, first compound 0.316 µM
[26] = second compound 1 µM, first compound 1 µM
[27] = second compound 1 µM, first compound 3.16 µM
[28] = second compound 1 µM, first compound 10 µM
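Note: spheroids exposed to compounds for seven days before readout.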
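Throughout, for viability, T/C: 100% = DMSO vehicle control viability.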

IC50 (curve of compound): > 10000 nM
SMILES: C[C@@H](NC(=O)c1ncnc(N)c1Cl)c1ncc(C(=O)Nc2cc(C(F)(F)F)c(Cl)cn2)s1
viability, T/C (compound 0.0316 µM): 116% [middle of 4 runs] | viability, T/C (compound 0.316 µM): 101% [middle of 4 runs] | viability, T/C (compound 1 µM): 100% (2×) and 109% and 117% | viability, T/C (compound 3.16 µM): 106% [middle of 4 runs]

IC50 (curve of first compound, second compound 0.00316 µM): < 31.6 nM | IC50 (curve of first compound, second compound 0.01 µM): < 31.6 nM | IC50 [1]: < 31.6 nM | IC50 [2]: < 31.6 nM | IC50 [3]: < 31.6 nM | IC50 [4]: < 31.6 nM
SMILES: CC(=O)OC12COC1CC(O)C1(C)C(=O)C(O)C3=C(C)C(OC(=O)C(O)C(NC(=O)OC(C)(C)C)c4ccccc4)CC(O)(C(OC(=O)c4ccccc4)C21)C3(C)C (centres undefined) + C=CC(=O)N1CCN(c2nc(OCC3CCCN3C)nc3c(F)c(-c4nc(N)cc(C)c4C(F)(F)F)c(Cl)cc23)C(C)C1
viability, T/C (second compound 0.00316 µM, first compound 0.0316 µM): 22.4% | viability, T/C (second compound 0.00316 µM, first compound 0.1 µM): 20.6% | viability, T/C (second compound 0.00316 µM, first compound 0.316 µM): 22.6% | viability, T/C (second compound 0.00316 µM, first compound 1 µM): 19.4% | viability, T/C (second compound 0.00316 µM, first compound 3.16 µM): 30% | viability, T/C (second compound 0.00316 µM, first compound 10 µM): 37.1% | viability, T/C (second compound 0.01 µM, first compound 0.0316 µM): 25% | viability, T/C (second compound 0.01 µM, first compound 0.1 µM): 21.8% | viability, T/C (second compound 0.01 µM, first compound 0.316 µM): 21.1% | viability, T/C (second compound 0.01 µM, first compound 1 µM): 23.5% | viability, T/C (second compound 0.01 µM, first compound 3.16 µM): 32.6% | viability, T/C (second compound 0.01 µM, first compound 10 µM): 47.7% | viability, T/C [5]: 31.6% | viability, T/C [6]: 26.6% | viability, T/C [7]: 24.9% | viability, T/C [8]: 21% | viability, T/C [9]: 29.5% | viability, T/C [10]: 44.8% | viability, T/C [11]: 26% | viability, T/C [12]: 23% | viability, T/C [13]: 26% | viability, T/C [14]: 19% | viability, T/C [15]: 27.7% | viability, T/C [16]: 42.8% | viability, T/C [17]: 21.1% | viability, T/C [18]: 26.6% | viability, T/C [19]: 22.4% | viability, T/C [20]: 24.9% | viability, T/C [21]: 28% | viability, T/C [22]: 45.9% | viability, T/C [23]: 34.8% | viability, T/C [24]: 24.1% | viability, T/C [25]: 22.1% | viability, T/C [26]: 26.4% | viability, T/C [27]: 34.4% | viability, T/C [28]: 50.1%

IC50 [1]: > 10000 nM | IC50 [2]: > 10000 nM | IC50 [3]: > 10000 nM | IC50 [4]: 838 nM | IC50 (curve of first compound, second compound 3.16 µM): 283 nM | IC50 (curve of first compound, second compound 10 µM): 88.2 nM
SMILES: NC1c2ccccc2OC12CCN(c1cnc3c(N4CCCc5ncccc54)n[nH]c3n1)CC2 (centres undefined) + C#Cc1c(F)ccc2cc(O)cc(-c3ncc4c(N5CC6CCC(C5)N6)nc(OCC56CCCN5CC(F)C6)nc4c3F)c12
viability, T/C [5]: 85.3% | viability, T/C [6]: 107% | viability, T/C [7]: 70.4% | viability, T/C [8]: 58.8% | viability, T/C [9]: 67.3% | viability, T/C [10]: 73.1% | viability, T/C [11]: 91.6% | viability, T/C [12]: 101% | viability, T/C [13]: 74.4% | viability, T/C [14]: 58.1% | viability, T/C [15]: 64.7% | viability, T/C [16]: 78.4% | viability, T/C [17]: 104% | viability, T/C [18]: 105% | viability, T/C [19]: 62% | viability, T/C [20]: 51.2% | viability, T/C [21]: 56.2% | viability, T/C [22]: 57.4% | viability, T/C [23]: 97.9% | viability, T/C [24]: 88.2% | viability, T/C [25]: 53.3% | viability, T/C [26]: 46.4% | viability, T/C [27]: 50.3% | viability, T/C [28]: 51.3% | viability, T/C (second compound 3.16 µM, first compound 0.0316 µM): 82.6% | viability, T/C (second compound 3.16 µM, first compound 0.1 µM): 75.3% | viability, T/C (second compound 3.16 µM, first compound 0.316 µM): 47.5% | viability, T/C (second compound 3.16 µM, first compound 1 µM): 36.4% | viability, T/C (second compound 3.16 µM, first compound 3.16 µM): 32.6% | viability, T/C (second compound 3.16 µM, first compound 10 µM): 40.4% | viability, T/C (second compound 10 µM, first compound 0.0316 µM): 63% | viability, T/C (second compound 10 µM, first compound 0.1 µM): 48.4% | viability, T/C (second compound 10 µM, first compound 0.316 µM): 29.6% | viability, T/C (second compound 10 µM, first compound 1 µM): 28.9% | viability, T/C (second compound 10 µM, first compound 3.16 µM): 28% | viability, T/C (second compound 10 µM, first compound 10 µM): 25.8%

From PubChem BioAssay AID2060899 (Molecular Pharmacology Branch, DTP, NCI, 2025)
